# Measured values from patent publication US10940139B2, “Compounds that interact with the Ras superfamily for the treatment of cancers, inflammatory diseases, rasopathies, and fibrotic disease” (Shy Therapeutics LLC, priority 2017, dated 2021).
# System: MIA-PACA2 pancreatic cancer cell lines
# Experiment: Cell proliferation assay (CellTiter 96 AQueous One)
# Assay type: cell-based
# Conditions: Homo sapiens, MIA PaCa-2; MIA-PACA2, same assay as the % inhibition (standard conditions)
row,IC50 [nM],Compound
1,100 to 500,Oc1nc(-c2ccccn2)nc2c(-c3ccccc3)csc12 [drawing 1581]
2,100 to 500,Oc1nc(-c2ccccn2)nc2scc(Br)c12 [drawing 1589]
3,501 to 1000,N#Cc1ncn(-c2nc(-c3ccccn3)nc3sc(-c4ccccc4)cc23)n1 [drawing 1595]
4,> 1000,O=C(CN1CCN(c2nc(-c3ccccn3)nc3sc(-c4ccccc4)cc23)CC1)N1CCCC1 [drawing 1606]
5,100 to 500,COc1ccnc(-c2nc(O)c3ccsc3n2)c1 [drawing 1631]
6,100 to 500,COc1cccc(N2CCN(C(=O)c3csc4c(O)nc(-c5ccccn5)nc34)CC2)c1 [drawing 1632]

row,Compound,IC50 [nM]
1,Oc1nc(-c2ccccn2)nc2c(Br)csc12 [drawing 1562],501 to 1000
2,O=C(c1csc2c(O)nc(-c3ccccn3)nc12)N1CCN(c2ccccc2)CC1 [drawing 1569],100 to 500
3,Oc1nc(-c2ccccn2)nc2c(-c3ccccc3Cl)csc12 [drawing 1582],100 to 500

# Same assay, conditions: Homo sapiens, MIA PaCa-2; at 30 μM, MIA-PACA2
row,Compound,inhibition at 30 µM [%]
1,CS(=O)(=O)c1cccc(C(=O)N2CCCc3c(O)nc(-c4ccccn4)nc32)c1 [drawing 1549],1 to 25
2,COCCCC(=O)N1CCCc2c(O)nc(-c3ccccn3)nc21 [drawing 1550],76 to 100
3,O=C(c1cocn1)N1CCCc2c(O)nc(-c3ccccn3)nc21 [drawing 1551],1 to 25
4,O=S(=O)(CCc1ccccc1)N1CCCc2c(O)nc(-c3ccccn3)nc21 [drawing 1552],1 to 25
5,O=S(=O)(c1ccccc1)N1CCCc2c(O)nc(-c3ccccn3)nc21 [drawing 1553],25 to 50
6,O=C(OCCc1ccccc1)N1CCCc2c(O)nc(-c3ccccn3)nc21 [drawing 1554],76 to 100
7,O=C(CC(c1ccccc1)c1ccccc1)N1CCCc2c(O)nc(-c3ccccn3)nc21 [drawing 1555],76 to 100
8,O=C(CCCc1cccnc1)N1CCCc2c(O)nc(-c3ccccn3)nc21 [drawing 1556],76 to 100
9,Nc1nc(O)c2scc(Br)c2n1 [drawing 1557],1 to 25
10,CC1CCN(C(=O)c2csc3c(O)nc(N)nc23)CC1 [drawing 1558],1 to 25
11,Nc1nc(O)c2scc(C(=O)N3CCC(N4CCCC4=O)CC3)c2n1 [drawing 1559],25 to 50
12,Nc1nc(O)c2scc(C(=O)NCCc3cccnc3)c2n1 [drawing 1560],1 to 25
13,Nc1nc(O)c2scc(C(=O)N3CCc4ccccc4CC3)c2n1 [drawing 1561],1 to 25
14,Oc1nc(-c2ccccn2)nc2c(Br)csc12 [drawing 1562],76 to 100
15,CC1CCN(C(=O)c2csc3c(O)nc(-c4ccccn4)nc23)CC1 [drawing 1563],76 to 100
16,COCC1CCN(C(=O)c2csc3c(O)nc(-c4ccccn4)nc23)CC1 [drawing 1564],76 to 100
17,CCOCCC1CCN(C(=O)c2csc3c(O)nc(-c4ccccn4)nc23)CC1 [drawing 1565],76 to 100
18,COCCCC1CCN(C(=O)c2csc3c(O)nc(-c4ccccn4)nc23)CC1 [drawing 1566],76 to 100
19,O=C(c1csc2c(O)nc(-c3ccccn3)nc12)N1CCC(N2CCOCC2)CC1 [drawing 1567],1 to 25
20,O=C(c1csc2c(O)nc(-c3ccccn3)nc12)N1CCC(N2CCCC2=O)CC1 [drawing 1568],1 to 25
21,O=C(c1csc2c(O)nc(-c3ccccn3)nc12)N1CCN(c2ccccc2)CC1 [drawing 1569],76 to 100

row,Compound,inhibition at 30 µM [%]
1,O=C(c1csc2c(O)nc(-c3ccccn3)nc12)N1CCN(c2ccncc2)CC1 [drawing 1570],76 to 100
2,O=C(c1csc2c(O)nc(-c3ccccn3)nc12)N1CCC(c2cccnc2)CC1 [drawing 1571],76 to 100
3,CC1(O)CCN(C(=O)c2csc3c(O)nc(-c4ccccn4)nc23)CC1 [drawing 1572],76 to 100
4,CC1(N)CCN(C(=O)c2csc3c(O)nc(-c4ccccn4)nc23)CC1 [drawing 1573],1 to 25
5,CCOC(=O)NC1CCN(C(=O)c2csc3c(O)nc(-c4ccccn4)nc23)CC1 [drawing 1574],51 to 75
6,COCCOCCN(C)C(=O)c1csc2c(O)nc(-c3ccccn3)nc12 [drawing 1575],25 to 50
7,O=C(c1csc2c(O)nc(-c3ccccn3)nc12)N(CCO)CCOCCO [drawing 1576],1 to 25
8,CN(CCc1ccncc1)C(=O)c1csc2c(O)nc(-c3ccccn3)nc12 [drawing 1577],25 to 50
9,O=C(NCCc1cccnc1)c1csc2c(O)nc(-c3ccccn3)nc12 [drawing 1578],76 to 100
10,O=C(c1csc2c(O)nc(-c3ccccn3)nc12)N1CCc2ccccc2CC1 [drawing 1579],76 to 100
11,Nc1nc(O)c2scc(-c3ccccc3)c2n1 [drawing 1580],25 to 50
12,Oc1nc(-c2ccccn2)nc2c(-c3ccccc3)csc12 [drawing 1581],76 to 100
13,Oc1nc(-c2ccccn2)nc2c(-c3ccccc3Cl)csc12 [drawing 1582],76 to 100
14,Oc1nc(-c2ccccn2)nc2c1ncn2-c1ccccc1 [drawing 1583],25 to 50
15,Oc1nc(-c2ccccn2)nc2c1ncn2-c1ccccn1 [drawing 1584],76 to 100
16,COc1ccc(COCC(=O)Nc2ccnc(-c3ccccn3)n2)cn1 [drawing 1585],1 to 25
17,N#Cc1ccc(CC(=O)Nc2ccnc(-c3ccccn3)n2)cc1 [drawing 1586],76 to 100
18,Brc1csc2nc(-c3ccccn3)nc(N3CCOCC3)c12 [drawing 1587],25 to 50
19,c1ccc(-c2nc(N3CCOCC3)c3ccsc3n2)nc1 [drawing 1588],51 to 75
20,Oc1nc(-c2ccccn2)nc2scc(Br)c12 [drawing 1589],76 to 100
21,Oc1nc(-c2ccccn2)nc2sccc12 [drawing 1590],76 to 100

row,Compound,inhibition at 30 µM [%]
1,c1ccc(-c2nc(NCC3CCCO3)c3ccsc3n2)nc1 (stereo not shown) [drawing 1591],76 to 100
2,CCN(CC)CCC(C)Nc1nc(-c2ccccn2)nc2sccc12 (stereo not shown) [drawing 1592],76 to 100
3,O=C1CN(c2nc(-c3ccccn3)nc3scc(-c4ccccc4)c23)CCN1 [drawing 1593],1 to 25
4,O=C1CN(c2nc(-c3ccccn3)nc3scc(-c4ccccc4)c23)CCN1CCO [drawing 1594],51 to 75
5,N#Cc1ncn(-c2nc(-c3ccccn3)nc3sc(-c4ccccc4)cc23)n1 [drawing 1595],76 to 100
6,Cc1nnc(C(Nc2nc(-c3ccccn3)nc3scc(-c4ccccc4)c23)c2ccccc2)n1C (stereo not shown) [drawing 1596],76 to 100
7,Cc1sc2nc(-c3ccccn3)nc(NCCc3nccn3C)c2c1-c1ccccc1 [drawing 1597],76 to 100
8,CCCNC(=O)CN1CCN(c2nc(-c3ccccn3)nc3sc(-c4ccccc4)cc23)CC1 [drawing 1598],76 to 100
9,CC(Nc1nc(-c2ccccn2)nc2scc(-c3ccccc3)c12)c1nncn1C (stereo not shown) [drawing 1601],76 to 100
10,c1ccc(-c2csc3nc(-c4ccccn4)nc(N4CCN(Cc5cccnc5)CC4)c23)cc1 [drawing 1602],76 to 100
11,c1ccc(-c2csc3nc(-c4ccccn4)nc(N4CCN(CC5CCCO5)CC4)c23)cc1 (stereo not shown) [drawing 1603],76 to 100
12,CN(Cc1cnn(C)c1)c1nc(-c2ccccn2)nc2scc(-c3ccccc3)c12 [drawing 1604],76 to 100
13,O=C(CN1CCN(c2nc(-c3ccccn3)nc3sc(-c4ccccc4)cc23)CC1)N1CCCC1 [drawing 1606],76 to 100
14,CNC(=O)CN1CCN(c2nc(-c3ccccn3)nc3scc(-c4ccccc4)c23)CC1 [drawing 1607],1 to 25
15,O=S1(=O)CCC(N2CCN(c3nc(-c4ccccn4)nc4scc(-c5ccccc5)c34)CC2)C1 (stereo not shown) [drawing 1608],76 to 100
16,CN(CC(=O)N1CCOCC1)c1nc(-c2ccccn2)nc2scc(-c3ccccc3)c12 [drawing 1609],51 to 75
17,CON(C)c1nc(-c2ccccn2)nc2scc(-c3ccccc3)c12 [drawing 1610],76 to 100
18,O=C(CN1CCN(c2nc(-c3ccccn3)nc3scc(-c4ccccc4)c23)CC1)N1CCCCC1 [drawing 1611],76 to 100
19,O=C(CNc1nc(-c2ccccn2)nc2scc(-c3ccccc3)c12)NC1CC1 [drawing 1612],76 to 100
20,CCN(CC)C(=O)CN1CCN(c2nc(-c3ccccn3)nc3scc(-c4ccccc4)c23)CC1 [drawing 1613],76 to 100
21,CC(C)CNC(=O)CN1CCN(c2nc(-c3ccccn3)nc3scc(-c4ccccc4)c23)CC1 [drawing 1614],76 to 100

row,Compound,inhibition at 30 µM [%]
1,O=S1(=O)CCC(Nc2nc(-c3ccccn3)nc3scc(-c4ccccc4)c23)C1 (stereo not shown) [drawing 1615],76 to 100
2,c1ccc(-c2csc3nc(-c4ccccn4)nc(N4CCN(CCN5CCCC5)CC4)c23)cc1 [drawing 1616],76 to 100
3,OC1CCCN(c2nc(-c3ccccn3)nc3scc(-c4ccccc4)c23)C1 (stereo not shown) [drawing 1617],76 to 100
4,c1ccc(-c2csc3nc(-c4ccccn4)nc(N4CCOCC4)c23)cc1 [drawing 1618],76 to 100
5,OC1CCN(c2nc(-c3ccccn3)nc3scc(-c4ccccc4)c23)CC1 [drawing 1619],76 to 100
6,O=C(CN1CCN(c2nc(-c3ccccn3)nc3scc(-c4ccccc4)c23)CC1)N1CCCC1 [drawing 1620],76 to 100
7,O=C(CN1CCN(c2nc(-c3ccccn3)nc3scc(-c4ccccc4)c23)CC1)NC1CC1 [drawing 1621],76 to 100
8,O=C(C1CCN(c2nc(-c3ccccn3)nc3scc(-c4ccccc4)c23)CC1)N1CCCCC1 [drawing 1622],76 to 100
9,c1ccc(-c2csc3nc(-c4ccccn4)nc(NN4CCOCC4)c23)cc1 [drawing 1623],76 to 100
10,NC(=O)C1CCCN(c2nc(-c3ccccn3)nc3scc(-c4ccccc4)c23)C1 (stereo not shown) [drawing 1624],76 to 100
11,COCCNc1nc(-c2ccccn2)nc2scc(-c3ccccc3)c12 [drawing 1625],76 to 100
12,CC(=O)N1CCN(c2nc(-c3ccccn3)nc3scc(-c4ccccc4)c23)CC1 [drawing 1626],76 to 100
13,O=C1CCN(c2nc(-c3ccccn3)nc3scc(-c4ccccc4)c23)CC1 [drawing 1627],76 to 100
14,Nc1nc(O)c2nc[nH]c2n1 [drawing 1629],1 to 25
15,Cc1sc2nc(N)nc(O)c2c1C [drawing 1630],1 to 25
16,COc1ccnc(-c2nc(O)c3ccsc3n2)c1 [drawing 1631],76 to 100
17,COc1cccc(N2CCN(C(=O)c3csc4c(O)nc(-c5ccccn5)nc34)CC2)c1 [drawing 1632],76 to 100
18,Cc1ccccc1N1CCN(C(=O)c2csc3c(O)nc(-c4ccccn4)nc23)CC1 [drawing 1633],76 to 100
19,O=C(c1csc2c(O)nc(-c3ccccn3)nc12)N1CCN(Cc2cccc(O)c2)CC1 [drawing 1634],76 to 100
